US5528046A, “Method and device for determining the location and number of fluorescent molecules” (Hamamatsu Photonics K.K., priority 1992, dated 1996)

Tests used:
[1] = molecular target: bovine serum albumin (Bos taurus, UniProt P02769); experiment: Affinity of bovine serum albumin for FLB (FLB absorption spectrum); assay type: binding; settings: causes no changes to FLB spectrum
Text: Foster and Konig report that is has been found based on changes of absorption spectra of some organic dye molecules (fluorescent molecules) containing a fluorescent substrate in water that the organic dye molecules form dimers at high concentration (10^-3 -10^-1 M). Koizumi and Mataga report a change of absorption spectrum in an aqueous solution containing fluorescent molecules in the presence of electrolytic polymers. Based on these studies, it is considered that changes of the spectra are caused by the cohesive effect of the fluorescent molecules to the polymers. Considering these past studies and the bonding between SA and B due to their high affinity, it is considered that similarly sufficient local adhesion effects of FLB to SA can be present. This is further optical evidence of the interaction between SA and FLB. For example, bovine serum albumin, which has no affinity with FLB, causes no changes to FLB spectrum.

[2] = molecular target: streptavidin (SA), tetramer (Streptomyces avidinii, UniProt P22629); settings: cited from earlier work
Sequence of streptavidin (SA), tetramer (P22629 25-183): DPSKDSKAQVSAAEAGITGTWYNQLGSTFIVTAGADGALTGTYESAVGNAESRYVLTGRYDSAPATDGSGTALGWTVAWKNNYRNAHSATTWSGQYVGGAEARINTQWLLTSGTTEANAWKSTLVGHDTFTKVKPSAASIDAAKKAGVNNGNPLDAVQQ

Sequence of bovine serum albumin (P02769 25-607): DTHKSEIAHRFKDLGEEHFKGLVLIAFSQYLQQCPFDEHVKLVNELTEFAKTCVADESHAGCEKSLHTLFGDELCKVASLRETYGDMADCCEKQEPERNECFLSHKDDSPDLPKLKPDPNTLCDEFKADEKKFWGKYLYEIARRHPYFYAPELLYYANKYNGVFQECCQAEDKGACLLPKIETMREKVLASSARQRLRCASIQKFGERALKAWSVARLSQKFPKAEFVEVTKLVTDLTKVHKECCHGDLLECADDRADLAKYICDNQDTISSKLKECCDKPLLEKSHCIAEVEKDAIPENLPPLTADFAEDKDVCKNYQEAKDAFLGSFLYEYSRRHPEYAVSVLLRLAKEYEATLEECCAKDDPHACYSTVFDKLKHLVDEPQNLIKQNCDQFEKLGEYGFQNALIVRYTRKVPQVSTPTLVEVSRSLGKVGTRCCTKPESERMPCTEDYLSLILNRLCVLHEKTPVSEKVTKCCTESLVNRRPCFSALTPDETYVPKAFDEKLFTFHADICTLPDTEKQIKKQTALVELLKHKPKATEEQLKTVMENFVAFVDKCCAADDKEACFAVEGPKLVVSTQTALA

Compound | affinity with FLB [1] | lifetime of the SA/B complex [2]
O=C(CCCCCNC(=O)CCCC[C@@H]1SC[C@@H]2NC(=O)N[C@@H]21)NCCCCCNC(=S)Nc1ccc2c(c1)C(=O)OC21c2ccc(O)cc2Oc2cc(O)ccc21 [FLB, fluorescein biotin] | no affinity | 
O=C(O)CCCC[C@@H]1SC[C@@H]2NC(=O)N[C@@H]21 [B, biotin] |  | about 2.9 days
